One compound from article PMC3278463, “Quercetin-4′-O-β-D-glucopyranoside (QODG) Inhibits Angiogenesis by Suppressing VEGFR2-Mediated Signaling in Zebrafish and Endothelial Cells” (PLoS ONE, 2012) can be followed below.

This assay has as its target VEGFR2 (KDR/Flk-1) (Homo sapiens, UniProt P35968). Briefly: ELISA-based in vitro VEGFR2 tyrosine kinase assay (HTScan VEGFR2 kinase assay kit). The class given is biochemical.

Chain of VEGFR2 (KDR/Flk-1) (P35968 20-1356): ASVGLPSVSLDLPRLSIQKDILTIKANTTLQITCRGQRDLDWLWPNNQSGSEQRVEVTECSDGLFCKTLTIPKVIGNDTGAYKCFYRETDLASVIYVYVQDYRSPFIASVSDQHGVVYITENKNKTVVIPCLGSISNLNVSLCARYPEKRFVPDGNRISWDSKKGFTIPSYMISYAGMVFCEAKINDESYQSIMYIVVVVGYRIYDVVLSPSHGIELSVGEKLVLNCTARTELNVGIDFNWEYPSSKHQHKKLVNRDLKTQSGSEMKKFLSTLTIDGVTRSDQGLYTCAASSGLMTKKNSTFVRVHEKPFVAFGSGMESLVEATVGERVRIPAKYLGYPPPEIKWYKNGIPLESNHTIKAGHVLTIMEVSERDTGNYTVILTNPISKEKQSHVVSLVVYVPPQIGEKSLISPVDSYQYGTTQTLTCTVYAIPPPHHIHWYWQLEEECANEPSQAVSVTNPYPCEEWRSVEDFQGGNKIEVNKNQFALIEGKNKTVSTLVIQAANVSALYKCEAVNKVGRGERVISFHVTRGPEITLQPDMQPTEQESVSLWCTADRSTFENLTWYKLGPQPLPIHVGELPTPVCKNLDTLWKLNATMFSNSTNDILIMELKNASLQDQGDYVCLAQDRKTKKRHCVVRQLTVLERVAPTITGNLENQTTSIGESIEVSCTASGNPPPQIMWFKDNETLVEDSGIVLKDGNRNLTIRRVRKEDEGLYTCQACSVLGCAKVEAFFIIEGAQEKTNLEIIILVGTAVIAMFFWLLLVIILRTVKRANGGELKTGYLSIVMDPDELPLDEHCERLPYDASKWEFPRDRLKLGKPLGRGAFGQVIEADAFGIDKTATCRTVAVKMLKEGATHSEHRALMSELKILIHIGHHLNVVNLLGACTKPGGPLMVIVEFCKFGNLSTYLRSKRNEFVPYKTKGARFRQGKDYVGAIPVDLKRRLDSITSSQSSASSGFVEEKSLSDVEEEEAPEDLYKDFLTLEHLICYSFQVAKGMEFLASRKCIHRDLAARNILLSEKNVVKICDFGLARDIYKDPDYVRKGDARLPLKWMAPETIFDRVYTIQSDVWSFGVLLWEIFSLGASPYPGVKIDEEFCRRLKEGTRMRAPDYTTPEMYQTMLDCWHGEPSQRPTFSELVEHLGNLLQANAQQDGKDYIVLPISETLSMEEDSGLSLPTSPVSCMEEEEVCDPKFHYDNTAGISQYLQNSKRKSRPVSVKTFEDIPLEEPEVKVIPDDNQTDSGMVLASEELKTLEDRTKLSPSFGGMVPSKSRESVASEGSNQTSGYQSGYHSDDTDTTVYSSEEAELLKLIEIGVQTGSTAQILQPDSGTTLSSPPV

As for `O=c1c(O)c(-c2ccc(O[C@@H]3O[C@H](CO)[C@@H](O)[C@H](O)[C@H]3O)c(O)c2)oc2cc(O)cc(O)c12` [QODG, Quercetin-4′-O-β-D-glucopyranoside], the IC50 stood at 20.1 nM.
